{
  "source": "patent EP4603477A1",
  "about": "“INHIBITORS OF THE CORONAVIRUS ACCESSORY PROTEIN ORF9B” (Consejo Superior De Investigaciones Científicas, priority 2024, dated 2025)",
  "key": {"A549.ORF9b": {"tested_on": "A549.ORF9b", "type": "cell-based", "details": "A549.ORF9b cells; 10 ng/mL interferon-β1 4 h, inhibitor 1 µM 1 h"}, "THP-1. ORF9b cells": {"tested_on": "THP-1. ORF9b cells", "type": "cell-based", "details": "10 ng/mL interferon-β1 4 h, inhibitor 1 µM 1 h"}, "THP-1.ORF9b cells": {"tested_on": "THP-1.ORF9b cells", "type": "cell-based"}, "A549.ORF9b cells [1]": {"tested_on": "A549.ORF9b cells", "assay": "Fluorescence microscopy, co-localization of ORF9b and mitochondria", "type": "cell-based"}, "A549.ORF9b cells [2]": {"tested_on": "A549.ORF9b cells", "type": "cell-based"}, "[3]": {"molecular_target": "T1, Recombinant SARS-CoV-2 GST-ORF9b protein (Severe acute respiratory syndrome coronavirus 2, UniProt P0DTD2)", "T1 construct": "purchased BPS Bioscience", "T1 sequence (P0DTD2 whole entry)": "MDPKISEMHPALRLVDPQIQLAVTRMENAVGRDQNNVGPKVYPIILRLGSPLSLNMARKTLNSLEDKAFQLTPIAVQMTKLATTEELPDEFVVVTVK", "assay": "Surface plasmon resonance, ORF9b-ORF9b homotypic interaction", "type": "binding", "details": "mobile-phase GST-ORF9b pre-incubated with 5 µM compound"}, "A549wt cells": {"tested_on": "A549wt cells", "type": "cell-based", "details": "both without and with LPS+ATP, MCC950 for the last 3 h"}, "[4]": {"details": "THP-1 monocyte-macrophage cells, low micromolar concentrations (Fig. 9B)"}, "[5]": {"details": "A549 lung epithelial cells, low micromolar concentrations (Fig. 9A)"}},
  "note": "Where two headings read alike, the source gives them in different places.",
  "data": [
    {"smiles": "Nc1ccc(F)c(NC(=O)Cc2ccccc2)c1", "note": "[Compound 1]", "values": [
      {"measurement": "restoration of IFN-β induced expression of OAS3 and ISG15 mitigated by ORF9b", "setting": "A549.ORF9b", "result": "largely restored"},
      {"measurement": "restoration of IFN-β induced expression of OAS3 and ISG15 mitigated by ORF9b", "setting": "THP-1. ORF9b cells", "result": "largely restored"},
      {"measurement": "inhibition of ORF9b-induced caspase-1 activation", "setting": "THP-1.ORF9b cells; THP-1.ORF9b cells", "result": "significantly inhibited"},
      {"measurement": "inhibition of the activation of caspase-1 induced by ORF9b", "setting": "THP-1.ORF9b cells; THP-1.ORF9b cells, 5 µM, 3 h (Fig. 7)", "result": "inhibits"},
      {"measurement": "logP", "setting": "physchem", "result": 2.14},
      {"measurement": "mitochondrial eviction of ORF9b", "setting": "A549.ORF9b cells [1]; 2.5 µM, 4 h (Fig. 8)", "result": "causes mitochondrial eviction"},
      {"measurement": "mitochondrial eviction of ORF9b", "setting": "A549.ORF9b cells [1]; low micromolar concentrations", "result": "rapid and remarkable partial eviction"},
      {"measurement": "inhibition of ORF9b-induced caspase-1 activation", "setting": "A549.ORF9b cells [2]; A549.ORF9b cells", "result": "significantly inhibited"},
      {"measurement": "inhibition of the activation of caspase-1 induced by ORF9b", "setting": "A549.ORF9b cells [2]; A549.ORF9b cells, 5 µM, 3 h (Fig. 6)", "result": "inhibits"},
      {"measurement": "Binding of GST-ORF9b to immobilized GST-ORF9b", "setting": "[3]", "result": "significantly inhibited"}
    ]},
    {"smiles": "Nc1ccc(F)c(NC(=O)c2cccc3ccccc23)c1", "note": "[Compound 2, N-(5-Amino-2-fluorophenyl)-1-naphthamide]", "values": [
      {"measurement": "restoration of IFN-β induced expression of OAS3 and ISG15 mitigated by ORF9b", "setting": "A549.ORF9b", "result": "largely restored"},
      {"measurement": "restoration of IFN-β induced expression of OAS3 and ISG15 mitigated by ORF9b", "setting": "THP-1. ORF9b cells", "result": "largely restored"},
      {"measurement": "inhibition of ORF9b-induced caspase-1 activation", "setting": "THP-1.ORF9b cells; THP-1.ORF9b cells", "result": "inhibited"},
      {"measurement": "inhibition of the activation of caspase-1 induced by ORF9b", "setting": "THP-1.ORF9b cells; [4]", "result": "inhibit"},
      {"measurement": "logP", "setting": "physchem", "result": 3.19},
      {"measurement": "mitochondrial eviction of ORF9b", "setting": "A549.ORF9b cells [1]; 5 µM, 4 h (Fig. 11)", "result": "induce mitochondrial eviction"},
      {"measurement": "mitochondrial eviction of ORF9b", "setting": "A549.ORF9b cells [1]; low micromolar concentrations", "result": "capable of causing mitochondrial eviction"},
      {"measurement": "inhibition of ORF9b-induced caspase-1 activation", "setting": "A549.ORF9b cells [2]; A549.ORF9b cells", "result": "inhibited"},
      {"measurement": "inhibition of the activation of caspase-1 induced by ORF9b", "setting": "A549.ORF9b cells [2]; [5]", "result": "inhibit"}
    ]},
    {"smiles": "Cc1ccc(N)c(NC(=O)Cc2ccc(F)cc2)c1", "note": "[Compound 3, N-(2-Amino-5-methylphenyl)-2-(4-fluorophenyl)acetamide]", "values": [
      {"measurement": "inhibition of ORF9b-induced caspase-1 activation", "setting": "THP-1.ORF9b cells; THP-1.ORF9b cells", "result": "much lower or no"},
      {"measurement": "logP", "setting": "physchem", "result": 2.63},
      {"measurement": "mitochondrial eviction of ORF9b", "setting": "A549.ORF9b cells [1]; low micromolar concentrations", "result": "did not cause mitochondrial eviction"},
      {"measurement": "inhibition of ORF9b-induced caspase-1 activation", "setting": "A549.ORF9b cells [2]; A549.ORF9b cells", "result": "much lower or no"}
    ]},
    {"smiles": "COc1ccc(CC(=O)Nc2cc(N)ccc2F)cc1", "note": "[Compound 4, N-(5-Amino-2-fluorophenyl)-2-(4-methoxyphenyl)acetamide]", "values": [
      {"measurement": "inhibition of ORF9b-induced caspase-1 activation", "setting": "THP-1.ORF9b cells; THP-1.ORF9b cells", "result": "inhibited"},
      {"measurement": "inhibition of the activation of caspase-1 induced by ORF9b", "setting": "THP-1.ORF9b cells; [4]", "result": "inhibit"},
      {"measurement": "logP", "setting": "physchem", "result": 2.01},
      {"measurement": "inhibition of ORF9b-induced caspase-1 activation", "setting": "A549.ORF9b cells [2]; A549.ORF9b cells", "result": "inhibited"},
      {"measurement": "inhibition of the activation of caspase-1 induced by ORF9b", "setting": "A549.ORF9b cells [2]; [5]", "result": "inhibit"}
    ]},
    {"smiles": "Nc1ccc(F)c(NC(=O)Cc2ccc(Cl)cc2)c1", "note": "[Compound 5, N-(5-Amino-2-fluorophenyl)-2-(4-chlorophenyl)acetamide]", "values": [
      {"measurement": "inhibition of ORF9b-induced caspase-1 activation", "setting": "THP-1.ORF9b cells; THP-1.ORF9b cells", "result": "inhibited"},
      {"measurement": "inhibition of the activation of caspase-1 induced by ORF9b", "setting": "THP-1.ORF9b cells; [4]", "result": "inhibit"},
      {"measurement": "logP", "setting": "physchem", "result": 2.7},
      {"measurement": "inhibition of ORF9b-induced caspase-1 activation", "setting": "A549.ORF9b cells [2]; A549.ORF9b cells", "result": "inhibited"},
      {"measurement": "inhibition of the activation of caspase-1 induced by ORF9b", "setting": "A549.ORF9b cells [2]; [5]", "result": "inhibit"}
    ]},
    {"smiles": "O=C(Cc1ccc(Cl)cc1)Nc1cc([N+](=O)[O-])ccc1F", "note": "[Compound 6, 2-(4-Chlorophenyl)-N-(2-fluoro-5-nitrophenyl)acetamide]", "values": [
      {"measurement": "restoration of IFN-β induced expression of OAS3 and ISG15 mitigated by ORF9b", "setting": "A549.ORF9b", "result": "largely restored"},
      {"measurement": "restoration of IFN-β induced expression of OAS3 and ISG15 mitigated by ORF9b", "setting": "THP-1. ORF9b cells", "result": "largely restored"},
      {"measurement": "inhibition of ORF9b-induced caspase-1 activation", "setting": "THP-1.ORF9b cells; THP-1.ORF9b cells", "result": "inhibited"},
      {"measurement": "inhibition of the activation of caspase-1 induced by ORF9b", "setting": "THP-1.ORF9b cells; [4]", "result": "inhibit"},
      {"measurement": "logP", "setting": "physchem", "result": 3.47},
      {"measurement": "mitochondrial eviction of ORF9b", "setting": "A549.ORF9b cells [1]; 5 µM, 4 h (Fig. 11)", "result": "induce mitochondrial eviction"},
      {"measurement": "mitochondrial eviction of ORF9b", "setting": "A549.ORF9b cells [1]; low micromolar concentrations", "result": "capable of causing mitochondrial eviction"},
      {"measurement": "inhibition of ORF9b-induced caspase-1 activation", "setting": "A549.ORF9b cells [2]; A549.ORF9b cells", "result": "inhibited"},
      {"measurement": "inhibition of the activation of caspase-1 induced by ORF9b", "setting": "A549.ORF9b cells [2]; [5]", "result": "inhibit"}
    ]},
    {"smiles": "COc1ccc(CC(=O)Nc2cc([N+](=O)[O-])ccc2F)cc1", "note": "[Compound 7, N-(2-Fluoro-5-nitrophenyl)-2-(4-methoxyphenyl)acetamide]", "values": [
      {"measurement": "inhibition of ORF9b-induced caspase-1 activation", "setting": "THP-1.ORF9b cells; THP-1.ORF9b cells", "result": "inhibited"},
      {"measurement": "inhibition of the activation of caspase-1 induced by ORF9b", "setting": "THP-1.ORF9b cells; [4]", "result": "inhibit"},
      {"measurement": "logP", "setting": "physchem", "result": 2.98},
      {"measurement": "inhibition of ORF9b-induced caspase-1 activation", "setting": "A549.ORF9b cells [2]; A549.ORF9b cells", "result": "inhibited"},
      {"measurement": "inhibition of the activation of caspase-1 induced by ORF9b", "setting": "A549.ORF9b cells [2]; [5]", "result": "inhibit"}
    ]},
    {"smiles": "Cc1ccc([N+](=O)[O-])c(NC(=O)Cc2ccc(F)cc2)c1", "note": "[Compound 8, N-(2-Nitro-5-methylphenyl)-2-(4-fluorophenyl)acetamide]", "values": [
      {"measurement": "inhibition of ORF9b-induced caspase-1 activation", "setting": "THP-1.ORF9b cells; THP-1.ORF9b cells", "result": "much lower or no"},
      {"measurement": "logP", "setting": "physchem", "result": 3.27},
      {"measurement": "mitochondrial eviction of ORF9b", "setting": "A549.ORF9b cells [1]; low micromolar concentrations", "result": "did not cause mitochondrial eviction"},
      {"measurement": "inhibition of ORF9b-induced caspase-1 activation", "setting": "A549.ORF9b cells [2]; A549.ORF9b cells", "result": "much lower or no"}
    ]},
    {"smiles": "O=C(Cc1ccccc1)Nc1cc([N+](=O)[O-])ccc1F", "note": "[Compound 9, N-(2-Fluoro-5-nitrophenyl)-2-phenylacetamide]", "values": [
      {"measurement": "logP", "setting": "physchem", "result": 2.85}
    ]},
    {"smiles": "CC(C)(O)c1coc(S(=O)(=O)NC(=O)Nc2c3c(cc4c2CCC4)CCC3)c1", "note": "[MCC950, reference compound]", "values": [
      {"measurement": "induction of caspase-1 activation by SARS-CoV-2 accessory proteins", "setting": "A549wt cells", "result": "abolished"}
    ]}
  ]
}
